In patent US9902736B2, “1-oxo/acylation-14-acylated oridonin derivative, preparation method therefor and application thereof” (HANGZHOU BENSHENG PHARMACEUTICAL CO., LTD., priority 2012, dated 2018):
≈ marks a conversion by molar mass, not a printed value.

Assays:
[1] = system: RPMI 8226; assay: Multiple myeloma cell growth inhibition, MTT, 72 h; type: cell-based; settings: Homo sapiens
Experimental: Multiple myeloma cell lines: RPMI8226 (multiple myeloma), purchased from Fuxiang Bio-tech Co. Ltd., Shanghai, China.
(§1) 6000 well-growing cells were obtained and inoculated into wells of a 96-well cell culture plate. […] On the next day, the 1-oxo/acylated-14-acylated oridonin derivatives of different concentrations were added and mixed uniformly. The plate was placed in a carbon dioxide cell incubator (5% CO2) at 37° C. and incubated for 72 hours. Then the viable cell concentration was determined by MTT method.

[2] = system: Kasumi-1; assay: Leukemia cell growth inhibition, MTT, 72 h; type: cell-based; settings: Homo sapiens
From the text: (§2) Leukemia cell lines: leukemia cell lines: K562/adr (drug-resistant, chronic myeloid leukemia, CML), NB4 (acute promyelocytic leukemia, AML), Kasumi-1 (acute myeloid leukemia M2 type, AML-M2), Jurkat (acute lymphoblastic leukemia, ALL), all of which were donated by Cancer Research Institute of Zhejiang University, China; and H9 (acute lymphoblastic leukemia, ALL), which was purchased from China Center for Type Culture Collection.
as §1, with “6000 well-growing leukemia cells were” for “6000 well-growing cells were”, “C. and was incubated for” for “C. and incubated for”

[3] = system: K562/ADR; assay: Leukemia cell growth inhibition, MTT, 72 h; type: cell-based; settings: Homo sapiens
From the text: as §2
as §1, with “6000 well-growing leukemia cells were” for “6000 well-growing cells were”, “C. and was incubated for” for “C. and incubated for”

[4] = system: Becap-37; assay: Solid tumor cell growth inhibition, MTT, 72 h; type: cell-based; settings: Homo sapiens
Experimental: (§3) 6000 well-growing human solid tumor cells were obtained and inoculated into wells of a 96-well cell culture plate. The culture medium was DMEM High Glucose cell culture medium containing 10% fetal bovine serum. The plate was placed in a carbon dioxide cell incubator (5% CO2) at 37° C. and incubated for 24 hours. After added with 1-oxo/acylated-14-acylated oridonin derivatives of different concentration and mixed uniformly, the plate was placed in a carbon dioxide cell incubator (5% CO2) at 37° C. and incubated for 72 hours. Then the viable cell concentration was determined by MTT method.

[5] = system: A549; assay: Solid tumor cell growth inhibition, MTT, 72 h; type: cell-based; settings: Homo sapiens
Experimental: as §3

[6] = system: PC-3; assay: Solid tumor cell growth inhibition, MTT, 72 h; type: cell-based; settings: Homo sapiens
Experimental: as §3

[7] = system: RKO; assay: Solid tumor cell growth inhibition, MTT, 72 h; type: cell-based; settings: Homo sapiens
Experimental: as §3

[8] = system: Hep G2; assay: Solid tumor cell growth inhibition, MTT, 72 h; type: cell-based; settings: Homo sapiens, HepG2
Experimental: as §3

[9] = system: SK-OV-3; assay: Solid tumor cell growth inhibition, MTT, 72 h; type: cell-based; settings: Homo sapiens, SK-OV-3, 72 h, MTT
Experimental: as §3

[10] = system: MG-63; assay: Solid tumor cell growth inhibition, MTT, 72 h; type: cell-based; settings: Homo sapiens
Experimental: as §3

[11] = system: PANC-1; assay: Solid tumor cell growth inhibition, MTT, 72 h; type: cell-based; settings: Homo sapiens
Experimental: as §3

[12] = system: CaEs-17; assay: Solid tumor cell growth inhibition, MTT, 72 h; type: cell-based; settings: Homo sapiens, CaEs17
Experimental: as §3

[13] = system: U87-MG; assay: Solid tumor cell growth inhibition, MTT, 72 h; type: cell-based; settings: Homo sapiens, U-87 MG
Experimental: as §3

[14] = system: Jurkat; assay: Leukemia cell growth inhibition, MTT, 72 h; type: cell-based, human; settings: Homo sapiens, Jurkat; 72 h, MTT
From the text: as §2
as §1, with “6000 well-growing leukemia cells were” for “6000 well-growing cells were”, “C. and was incubated for” for “C. and incubated for”

[15] = system: H9; assay: Leukemia cell growth inhibition, MTT, 72 h; type: cell-based, human; settings: Homo sapiens, H9; 72 h, MTT
From the text: as §2
as §1, with “6000 well-growing leukemia cells were” for “6000 well-growing cells were”, “C. and was incubated for” for “C. and incubated for”

[16] = system: NB4; assay: Leukemia cell growth inhibition, MTT, 72 h; type: cell-based, human; settings: Homo sapiens, NB-4; 72 h, MTT
From the text: as §2
as §1, with “6000 well-growing leukemia cells were” for “6000 well-growing cells were”, “C. and was incubated for” for “C. and incubated for”

[17] = system: Hep-2; assay: Solid tumor cell growth inhibition, MTT, 72 h; type: cell-based, human
Experimental: as §3

[18] = system: MGC-803; assay: Solid tumor cell growth inhibition, MTT, 72 h; type: cell-based, human
Experimental: as §3

[19] = system: Hela; assay: Solid tumor cell growth inhibition, MTT, 72 h; type: cell-based, human; settings: Homo sapiens, HeLa; 72 h, MTT
Experimental: as §3

[20] = system: CNE; assay: Solid tumor cell growth inhibition, MTT, 72 h; type: cell-based, human; settings: Homo sapiens, CNE; 72 h, MTT
Experimental: as §3

[21] = Homo sapiens, MGC-803, 72 h, MTT

Compound: C=C1C(=O)[C@]23[C@H](OC(=O)c4ccc(OC)cc4)[C@H]1CC[C@H]2[C@@]12CO[C@@]3(O)[C@@H](O)[C@@H]1C(C)(C)CCC2OC(C)=O (stereo partly drawn) [BS-OR-091]
- IC50 [1]: 0.37 µg/mL (≈ 0.684 µM)
- IC90 [1]: 1.8 µg/mL (≈ 3.33 µM)
- IC50 [2]: 0.52 µg/mL (≈ 0.962 µM)
- IC90 [2]: 1.22 µg/mL (≈ 2.26 µM)
- IC50 [3]: 0.45 µg/mL (≈ 0.832 µM)
- IC90 [3]: 1.72 µg/mL (≈ 3.18 µM)
- IC50 [4]: 1.26 µg/mL (≈ 2.33 µM)
- IC90 [4]: 2.48 µg/mL (≈ 4.59 µM)
- IC50 [5]: 2.38 µg/mL (≈ 4.4 µM)
- IC90 [5]: 7.54 µg/mL (≈ 13.9 µM)
- IC50 [6]: 1.75 µg/mL (≈ 3.24 µM)
- IC90 [6]: 4.71 µg/mL (≈ 8.71 µM)
- IC50 [7]: 0.41 µg/mL (≈ 0.758 µM)
- IC90 [7]: 0.93 µg/mL (≈ 1.72 µM)
- IC50 [8]: 1.4 µg/mL (≈ 2.59 µM)
- IC90 [8]: 6.28 µg/mL (≈ 11.6 µM)
- IC50 ([9]; read-out: IC50 SK-OV-3): 1.75 µg/mL (≈ 3.24 µM)
- IC90 ([9]; read-out: IC90 SK-OV-3): 4.71 µg/mL (≈ 8.71 µM)
- IC50 [10]: 0.49 µg/mL (≈ 0.906 µM)
- IC90 [10]: 1.46 µg/mL (≈ 2.7 µM)
- IC50 [11]: 1.69 µg/mL (≈ 3.13 µM)
- IC90 [11]: 5.65 µg/mL (≈ 10.5 µM)
- IC50 [12]: 0.99 µg/mL (≈ 1.83 µM)
- IC90 [12]: 4.83 µg/mL (≈ 8.93 µM)
- IC50 [13]: 0.67 µg/mL (≈ 1.24 µM)
- IC90 [13]: 1.98 µg/mL (≈ 3.66 µM)
- IC50 [14]: 0.55 µg/mL (≈ 1.02 µM)
- IC90 [14]: 2.31 µg/mL (≈ 4.27 µM)
- IC50 [15]: 0.14 µg/mL (≈ 0.259 µM)
- IC90 [15]: 0.46 µg/mL (≈ 0.851 µM)
- IC50 [16]: 0.13 µg/mL (≈ 0.24 µM)
- IC90 [16]: 0.73 µg/mL (≈ 1.35 µM)
- IC50 ([17]; Homo sapiens, HEp-2, 72 h, MTT): 0.96 µg/mL (≈ 1.78 µM)
- IC90 ([17]; Homo sapiens, HEp-2, 72 h, MTT): 6.65 µg/mL (≈ 12.3 µM)
- anti-Hep-2 activity increased ([17]; in comparison with oridonin): ~5 fold
- IC50 [18, 21]: 0.59 µg/mL (≈ 1.09 µM)
- IC90 [18, 21]: 5.7 µg/mL (≈ 10.5 µM)
- anti-MGC-803 activity increased ([18]; in comparison with oridonin): ~10 fold
- IC50 [19]: 1.28 µg/mL (≈ 2.37 µM)
- IC90 [19]: 3.51 µg/mL (≈ 6.49 µM)
- IC50 [20]: 1.18 µg/mL (≈ 2.18 µM)
- IC90 [20]: 4.52 µg/mL (≈ 8.36 µM)
